Peptide text beside a SMILES is read from it. * marks the point of attachment. X1 = C=CC(=O)NCCCCC(NC(=O)OCc1ccccc1)C(=O)N1CCN(C(=O)C(CCC(=O)*)NC(=O)c2cccc3ccccc23)CC1
Legend:
Recombinant human TG2 = target: T1, Recombinant human TG2 (Homo sapiens, UniProt P21980); experiment: rhTG2 inhibition assay, continuous chromogenic substrate AL5, Kitz and Wilson conditions; assay type: biochemical; conditions: for kinact / Ki: * compounds fitted to double reciprocal model, 25 °C, pH 6.9, 100 µM AL5; for kinact/KI: * double reciprocal model, ** lowest concentrations of saturation plot fitted to a linear model; for Ki: irreversible inhibition
T1 construct: GST (with PSP protease site, plasmid pGST-PSP-rhTG2) (N, cleaved yes); made in house; host or cells: E. coli (BL21)
T1 sequence (P21980 1-687): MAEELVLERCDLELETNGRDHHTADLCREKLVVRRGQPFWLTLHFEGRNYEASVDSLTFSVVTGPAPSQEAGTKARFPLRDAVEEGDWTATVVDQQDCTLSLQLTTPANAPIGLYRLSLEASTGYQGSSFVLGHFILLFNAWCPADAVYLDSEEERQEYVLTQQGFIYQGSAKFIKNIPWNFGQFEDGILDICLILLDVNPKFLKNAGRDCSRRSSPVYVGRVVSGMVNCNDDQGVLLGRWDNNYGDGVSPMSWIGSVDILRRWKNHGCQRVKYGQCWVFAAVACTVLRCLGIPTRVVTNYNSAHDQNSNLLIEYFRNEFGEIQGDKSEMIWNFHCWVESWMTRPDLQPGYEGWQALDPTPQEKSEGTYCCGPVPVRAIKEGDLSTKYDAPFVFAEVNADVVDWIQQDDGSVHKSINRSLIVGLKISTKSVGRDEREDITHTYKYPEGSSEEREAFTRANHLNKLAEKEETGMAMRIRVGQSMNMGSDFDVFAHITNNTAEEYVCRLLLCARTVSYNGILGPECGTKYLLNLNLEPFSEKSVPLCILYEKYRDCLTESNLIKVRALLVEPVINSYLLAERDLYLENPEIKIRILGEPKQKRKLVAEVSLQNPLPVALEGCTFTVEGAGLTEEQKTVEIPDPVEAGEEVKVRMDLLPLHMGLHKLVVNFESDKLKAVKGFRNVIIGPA
Excerpt: Relative to the original scaffold, we expected the potency of these novel chemical biology tools to decrease slightly, due to the additional bulk incorporated on the glutamate sidechain. Although we expected the sidechain moiety to be directed into bulk solvent, we were concerned that its mass and charge would disfavor the binding interaction. Therefore, we kinetically characterized these probes as rigorously as possible, in order to determine their relative affinity and reactivity. For most inhibitors we have made, including the parent inhibitor AA9 (Figure 1), we have been able to measure kinetic parameters under Kitz and Wilson conditions. This experimental approach is based on the use of a continuous activity assay and the measurement of first-order rate constants for the time-dependent inactivation of enzyme (see Figure 2A and Figures S1–S5 in Supplementary Materials). The dependence of these observed rate constants (kobs) on the inhibitor concentration divided by alpha ([I]/α) can then be fitted to a hyperbolic saturation model where the upper plateau represents the rate constant of inactivation (kinact), and the concentration providing half the rate constant of inactivation represents KI (Figure 2B). […] To compensate for this, the overall efficiency of the inhibitor (kinact/KI) can be derived from the slope of the linear region of the saturation plot (Figure 2C). To gauge the individual parameters, a double reciprocal fitting was also employed where KI can be calculated from the x-axis intercept and kinact can be calculated from the y-axis intercept (Figure 2D).
Recombinant human TG2 was expressed and purified using previously published protocols. The inhibition was monitored using a continuous chromogenic substrate AL5 [38] under Kitz and Wilson conditions. In brief, 125 µL of assay buffer composed of 111.11 mM MOPS, 15.56 CaCl2 pH 6.9 was added to a 1.5 mL Eppendorf tube to achieve final assay concentrations of 50 mM MOPS and […] CaCl2. To the tube was then added the respective concentration of inhibitor from an aqueous working stock (<5% DMSO final conditions). Various volumes of water were then added to ensure the final volumes were equal. The AL5 substrate was added to the Eppendorf tube as a 5 µL 5.56 mM solution in DMSO to obtain a final assay concentration of 100 µM. A 96-well polystyrene microplate then had 180 µL of the assay mixture added to it. The enzymatic reaction was finally initiated by addition of 20 µL 5 mU prediluted TG2 in assay buffer using a multichannel pipette. The reaction was monitored at 405 nm using a BioTek Synergy 4 plate reader for 20 min at 25 °C. A positive control with no inhibitor and a blank with no enzyme nor inhibitor were also included. The blank subtracted kinetic curves were then analyzed. The observed first-order rate constants of inactivation were gathered through a one-phase association model using the GraphPad software package. The rate constants were then fit to various models to elucidate the inhibition parameters. If saturation was achieved, they were fit to a saturation model versus the inhibitor concentration divided by alpha (where α=1+Substrate/Km ). A linear regression of the linear region of this saturation fitting was calculated to obtain a ratio of kinact/KI. A further double reciprocal model was used if saturation could not be observed due to the limitations in sensitivity of the assay or if solubility issues were present.

MDA-MB-231 cells = experiment: Real-time cell migration assay (xCELLigence RTCA), MDA-MB-231; assay type: cell-based; conditions: 25 µM, 24 h
Method: We assayed the motility of MDA-MB-436 cells in the presence of vehicle or TG2 inhibitors 18 (NCEG2), 19 (NCEG-RHB), and NC9 at 25 μM concentration with the xCELLigence RTCA system (Real-Time Cell Analyzer System, Acea Biosciences Inc., San Diego, CA, USA). About 3 × 10^5 cells/wells were put into the top chambers of CIM-16 plates and the bottom chambers were filled with medium containing 5% FBS (Gibco Laboratories, New York, NY, USA) as a chemoattractant. Signal detection was done every 15 min for 24 h and each determination was performed in triplicate. Impedance values were expressed as a dimensionless parameter (Cell Index, CI), and values greater than 0.1 were considered positive. The rate of cell migration was also quantified by calculating the steepness, inclination, gradient, and changing rate of the CI curves over time (Slope).
A Vehicle B 0.025 Vehicle
C 2.5 Vehicle D 0.15 Vehicle
Figure S11. Migration assay: A) Dynamic monitoring of the migration of MDA-MB-436 cells.
We recorded for 24 hours the migration of the cells in the presence only of the vehicle or of the indicated TG2 inhibitors, used at 25 µM concentrations. Data are reported as Cell Index (CI) values ± SD. […] We recorded for 24 hours the migration of the cells in the presence only of the vehicle or of the indicated TG2 inhibitors, used at 25 µM concentrations. […]

**Q.** How did the kinact (Recombinant human TG2) turn out when `C=CC(=O)NCCCCC(NC(=O)OCc1ccccc1)C(=O)N1CCN(C(=O)C(CCC(=O)NCC(=O)NCC(=O)NCC(=O)NC(CC(=O)O)C(=O)NC(CC(=O)O)C(=O)NC(CC(=O)O)C(=O)O)NC(=O)c2cccc3ccccc23)CC1` (stereo not shown) [Compound 18] (X1-GGGDDD-OH; configuration not given here) was run?
**A.** Its kinact is 0.0388 s⁻¹.

**Q.** What about the kinact/KI (Recombinant human TG2) of the same compound?
**A.** Its kinact/KI is 9380 M⁻¹ s⁻¹.

**Q.** What about the Ki (Recombinant human TG2) of the same compound?
**A.** The Ki was 4100 ± 2100 nM.

**Q.** And the “effect on cell migration” value (MDA-MB-231 cells)?
**A.** The value was “failed to suppress migration”.

**Q.** Which kinact (Recombinant human TG2) does the source give for `C=CC(=O)NCCCCC(NC(=O)OCc1ccccc1)C(=O)N1CCN(C(=O)C(CCC(=O)NCCCCCC(=O)NC(CC(=O)O)C(=O)NC(CC(=O)O)C(=O)NC(CC(=O)O)C(=O)O)NC(=O)c2cccc3ccccc23)CC1` (stereo not shown) [Compound 17] here?
**A.** Its kinact is 0.0065 s⁻¹.

**Q.** And the kinact/KI (Recombinant human TG2)?
**A.** Its kinact/KI is 6820 M⁻¹ s⁻¹.

**Q.** What about the Ki (Recombinant human TG2) of the same compound?
**A.** Its Ki is 1000 ± 300 nM.

Source: article PMC10454375, “Cell-Impermeable Inhibitors Confirm That Intracellular Human Transglutaminase 2 Is Responsible for the Transglutaminase-Associated Cancer Phenotype” (International Journal of Molecular Sciences, 2023)
